Source: PubChem BioAssay AID463109 (Sanford-Burnham Center for Chemical Genomics, 2010)
Activity calls are given as the source filed them.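 The calls were made as follows: active = mean IC50 below 10 µM; inactive = the rest.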

Target: Apelin receptor (Homo sapiens) (UniProt P35414)
Assay: APJ antagonists, beta-arrestin recruitment, SAR follow-up, cell-based, luminescence (AID 463109)
Conditions: CHO-K1 AGTRL-1 PathHunter beta-arrestin luminescence

Chain of Apelin receptor (Homo sapiens) (P35414 whole entry, looked up): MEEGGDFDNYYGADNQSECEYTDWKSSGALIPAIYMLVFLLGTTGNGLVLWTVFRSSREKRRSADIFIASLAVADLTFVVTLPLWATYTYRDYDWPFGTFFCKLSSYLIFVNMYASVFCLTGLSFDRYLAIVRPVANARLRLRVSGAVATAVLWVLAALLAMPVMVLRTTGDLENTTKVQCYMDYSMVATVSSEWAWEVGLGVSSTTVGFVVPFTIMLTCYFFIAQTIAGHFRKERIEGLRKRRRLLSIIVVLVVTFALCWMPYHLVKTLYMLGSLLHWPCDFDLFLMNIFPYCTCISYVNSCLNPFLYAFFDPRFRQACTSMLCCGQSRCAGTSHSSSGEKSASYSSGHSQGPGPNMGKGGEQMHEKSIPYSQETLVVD

SMILES	IC50
CCOc1ccc(N=C2C(=O)Nc3ccc(C)c(Br)c32)cc1	6.58 µM
Cc1ccc(C(=O)CNc2cc(C)ccc2C)cc1	2.31 µM
CC(C)OC(=O)CN1C(=O)C(=O)c2ccccc21	4.14 µM
Cc1ccc(N=C2C(=O)Nc3ccccc32)cc1	inactive
COc1ccc(N=C2C(=O)Nc3ccc(C)c(Br)c32)cc1	> 79 µM (inactive)
CC(C)N1CCc2c(sc(NC(=O)c3cc(-c4cccs4)nc4ccccc34)c2C(N)=O)C1	inactive
Cn1c(=O)c(C(=S)NC(=O)C2CC2)c(N)n(Cc2ccccc2)c1=O	inactive
O=C(CNC(=O)c1ccco1)NCC(=O)OCC(=O)c1ccc(Cl)c([N+](=O)[O-])c1	5.42 µM
S=C1NCCc2ccccc2C1c1ccccc1Cl (stereo not given)	inactive
O=C(COC(=O)c1cccnc1)c1ccc(Cl)c(Cl)c1	inactive
COc1ccc(C(=O)CNc2cccc(F)c2)cc1	inactive
Oc1cccc2ccc(/C=C/c3ccccc3Cl)nc12	inactive
CC(C)Cc1nc2oc3c(Cl)ncnc3c2c2c1CCC2	inactive
O=S(=O)(NN=Cc1ccc(-c2ccccc2Cl)o1)c1ccccc1	inactive
Cc1cccc2c1NC(=O)C2=Nc1ccc(Cl)cc1	8.16 µM
O=C(Nc1nc2ccc(F)cc2s1)c1ccccn1	inactive
Cc1ccc(N=C2C(=O)Nc3c(C)cccc32)cc1	inactive
Cc1ccc(C)c(NCC(=O)c2ccc(Cl)cc2)c1	0.886 µM
O=C(CNc1cccc(Cl)c1)c1ccc(Br)cc1	> 79 µM (inactive)
Cc1ccc(C(=O)CNc2ccccc2)cc1	2.81 µM
CSc1cccc(N=C2C(=O)Nc3ccccc32)c1	3.82 µM
Cc1ccc(OCC(=O)OCC(=O)c2cccc([N+](=O)[O-])c2)cc1C	inactive
COc1ccc(S(=O)(=O)NNc2nc(C)cc(C)n2)cc1[N+](=O)[O-]	inactive
O=C1Nc2ccccc2C1=Nc1ccc(Br)cc1	5.52 µM
COc1cccc(/C=C/c2ccc3cccc(O)c3n2)c1OC	inactive
CNC(=O)c1nnsc1S(=O)(=O)c1ccc(Cl)cc1	inactive
O=C(COC(=O)c1cnccn1)c1ccc(Cl)c([N+](=O)[O-])c1	8.31 µM
CC(C(=O)OCC(=O)c1cccc([N+](=O)[O-])c1)N1C(=O)C2C3C=CC(C3)C2C1=O (stereo not given)	inactive

SMILES	IC50
NC(=O)c1ccccc1NCC(=O)c1ccc(Cl)cc1	2.89 µM
Cc1cc(C)nc(NNS(=O)(=O)c2c(F)cc(F)cc2Br)n1	2.9 µM
Cc1cccc(N=C2C(=O)Nc3c(Cl)cccc32)c1	2.3 µM
O=C(Nc1nc2c(F)cc(F)cc2s1)c1ccccn1	7.55 µM
CC(=O)c1ccc(N=C2C(=O)Nc3ccccc32)cc1	1.46 µM
CCN(CC)CC(=O)c1ccc(-c2ccccc2)cc1	inactive
Cc1cc(C)nc(NNS(=O)(=O)c2ccc(F)c(Cl)c2)n1	2.62 µM
Cc1cc(C)nc(NNS(=O)(=O)c2ccc(Cl)cc2)n1	8.98 µM
Cc1ccc2nc(C)cc(C(=O)OCC(=O)c3ccc(Cl)c([N+](=O)[O-])c3)c2c1	inactive
CC(=O)Nc1ccc(NC(=O)CCC(=O)OCC(=O)c2ccc(C)c([N+](=O)[O-])c2)cc1	inactive
FC(F)(F)c1cccc(Sc2nc(-c3ccccc3)nnc2C(F)(F)F)c1	inactive
CCC1CCCCN1CC(=O)c1ccc(OC(F)F)cc1 (stereo not given)	inactive
CC1(C)CC2(CC(c3ccccc3F)c3cc(Cl)c(O)cc3O2)NC(=S)N1 (stereo not given)	5.71 µM
O=C(COC(=O)c1ccncc1)c1ccc(Cl)c(Cl)c1	inactive
O=c1cc(CSc2ccc(Cl)cc2)nc(-c2ccccn2)[nH]1	inactive
CCC[N+](CC#Cc1ccccc1)(CCC)CC(=O)c1ccc(Cl)cc1	inactive
O=C(CNc1ccc(Br)cc1)c1ccccc1	2.26 µM
COC(=O)C1NN=C(C(=O)c2ccc(Cl)cc2)C1c1ccc(OC)cc1 (stereo not given)	inactive
COc1ccccc1NCC(=O)c1ccc(Cl)cc1	3.46 µM
O=C1Nc2ccccc2C1=Nc1ccc(F)cc1	5.95 µM
O=C(CNS(=O)(=O)c1ccccc1)OCC(=O)c1cccc([N+](=O)[O-])c1	inactive
CC(C)(C)c1ccc(-n2nc(C#N)c(Cl)cc2=O)cc1	3.53 µM
CCOC(=O)C1=NNC(C(=O)c2ccc(Cl)cc2)C1c1ccccc1 (stereo not given)	inactive
O=C(CNc1ccccc1C(=O)O)c1ccccc1	2.92 µM
Cc1ccc(N=C2C(=O)Nc3ccc(Br)cc32)cc1	4.73 µM
O=c1c2cc(Br)ccc2[nH]c(=S)n1Cc1ccccn1	inactive
COc1ccc(S(=O)(=O)NNc2nc(C)cc(C)n2)cc1Br	inactive
